Experimental data as given in PMC11800497, “Antifungal activity and biocompatibility assessment with molecular docking and dynamic simulations of new pyrazole derivatives” (BMC Biotechnology, 2025).
Read-outs that look alike come from different tables or passages of the source. Marks after values point to notes of the source that are not given here.

Tests used:
Experiment in all cases: Well-diffusion antifungal activity
[1] = tested on: A. niger ATCC 11414; assay type: cell-based, Aspergillus niger; details: for zone of inhibition at 1000 µg/mL: Aspergillus niger, read-out: IZD; for AI (activity index): relative to Fluconazole 1000 µg/ml
Protocol: This study investigated strains of four distinct fungal pathogens: Aspergillus flavus ATCC 9643, A. niger ATCC 11414, Rhizopus oryzae ATCC 96382, and Penicillium chrysogenum ATCC 10106. Every strain was acquired from the Dep. of Micro. Fac. Agric., […] Uni., in Egypt. Initially kept and preserved in malt agar medium at 4 °C, the pathogens were then grown overnight at 28 °C in malt broth medium to evaluate the antifungal activity. Fungal pathogen standard inoculum was prepared by following the procedure described by [19, 20]. To assess the antifungal activity, the pathogens were first maintained and stored at 4 °C in malt agar medium. They were then cultured in malt broth medium for a whole night at 28 °C. According to [22], the well-diffusion technique was used to test the antifungal activity. This included using a 9.0 mm cork borer that had been sterilized to create wells in the malt agar layer. […] After adding 1000 μg/ml of control pyrazole compounds and the standard antifungal (Fluconazole 1000 μg/ml) to each well, the petri dishes were incubated at 28 °C for 72 h. The diameter of the standard reference antifungal was compared to the millimeters measurements of the inhibitory zones. The formula according to [22] was utilized to compute the activity index (AI).1 [drawing 1]

[2] = tested on: A. flavus ATCC 9643; assay type: cell-based, Aspergillus flavus; details: for zone of inhibition at 1000 µg/mL: Aspergillus flavus, read-out: IZD
Protocol: (§1) This study investigated strains of four distinct fungal pathogens: Aspergillus flavus ATCC 9643, A. niger ATCC 11414, Rhizopus oryzae ATCC 96382, and Penicillium chrysogenum ATCC 10106. Every strain was acquired from the Dep. of Micro. Fac. Agric., […] Uni., in Egypt. Initially kept and preserved in malt agar medium at 4 °C, the pathogens were then grown overnight at 28 °C in malt broth medium to evaluate the antifungal activity. Fungal pathogen standard inoculum was prepared by following the procedure described by. To assess the antifungal activity, the pathogens were first maintained and stored at 4 °C in malt agar medium. They were then cultured in malt broth medium for a whole night at 28 °C. According to [22], the well-diffusion technique was used to test the antifungal activity. This included using a 9.0 mm cork borer that had been sterilized to create wells in the malt agar layer. […] After adding 1000 μg/ml of control pyrazole compounds and the standard antifungal (Fluconazole 1000 μg/ml) to each well, the petri dishes were incubated at 28 °C for 72 h. The diameter of the standard reference antifungal was compared to the millimeters measurements of the inhibitory zones. The formula according to [22] was utilized to compute the activity index (AI).1 [drawing 1]

[3] = tested on: P. chrysogenum ATCC 10106; assay type: cell-based, Penicillium chrysogenum; details: for zone of inhibition at 1000 µg/mL: Penicillium chrysogenum, read-out: IZD; for AI (activity index): relative to Fluconazole 1000 µg/ml
Protocol: as §1

[4] = tested on: R. oryzae ATCC 96382; assay type: cell-based, Rhizopus oryzae; details: Rhizopus arrhizus, read-out: IZD
Protocol: as §1

[5] = ATCC11414, 1000 µg/ml, 72 h, 28 °C
[6] = ATCC9643, 1000 µg/ml, 72 h, 28 °C
[7] = ATCC10106, 1000 µg/ml, 72 h, 28 °C
[8] = ATCC96382, 1000 µg/ml, 72 h, 28 °C

Compound	zone of inhibition at 1000 µg/mL [1, 5]	zone of inhibition at 1000 µg/mL [2, 6]	zone of inhibition at 1000 µg/mL [3, 7]	zone of inhibition at 1000 µg/mL [4, 8]	zone of inhibition at 1000 µg/mL ([1]; ATCC11414, 72 h)	zone of inhibition at 1000 µg/mL ([2]; ATCC9643, 72 h)	zone of inhibition at 1000 µg/mL ([3]; ATCC10106, 72 h)	zone of inhibition at 1000 µg/mL ([4]; ATCC96382, 72 h)	AI (activity index) ([3]; 1000 µg/ml)	IZD ([1]; 1000 µg/ml, 72 h, 28 °C)	AI (activity index) ([1]; 1000 µg/ml)	IZD ([2]; 1000 µg/ml, 72 h, 28 °C)	IZD ([3]; 1000 µg/ml, 72 h, 28 °C)
N#C/C(=C\c1cn(-c2ccccc2)nc1-c1ccccc1)C(=O)Nc1ccc([N+](=O)[O-])cc1 [3f]	0 mm	0 mm	0 mm	0 mm									
CN(C)/C=C(\C#N)C(=O)N/N=C/c1cn(-c2ccccc2)nc1-c1ccccc1 [compound 11]	0 mm	0 mm	0 mm	0 mm									
O=Cc1cn(-c2ccccc2)nc1-c1ccccc1 [compound 1, 1,3-diphenyl-1H-pyrazole-4-carbaldehyde]					0 mm	0 mm	0 mm	0 mm					
Cc1ccc(NC(=O)/C(C#N)=C/c2cn(-c3ccccc3)nc2-c2ccccc2)cc1 [3a]	0 mm	0 mm	0 mm	0 mm									
N#C/C(=C\c1cn(-c2ccccc2)nc1-c1ccccc1)C(=O)Nc1ccc(Br)cc1 [3c]	0 mm	0 mm	0 mm	0 mm									
N#C/C(=C\c1cn(-c2ccccc2)nc1-c1ccccc1)C(=O)Nc1ccc(Cl)cc1 [3d]	0 mm	0 mm	0 mm	0 mm									
N#C/C(=C\c1cn(-c2ccccc2)nc1-c1ccccc1)C(=O)Nc1nc2ccccc2s1 [3h]	0 mm	0 mm	15 ± 0.25 mm	0 mm					0.65				
N#Cc1c(-c2cn(-c3ccccc3)nc2-c2ccccc2)[nH][nH]c1=O [compound 7]	0 mm	0 mm	13 ± 0.11 mm	0 mm					0.56				
CN(C)C=C1C(=O)NN=C(c2cn(-c3ccccc3)nc2-c2ccccc2)C1=O [compound 12]	25 mm	23 mm	0 mm	0 mm						25 ± 0.08^f mm	0.78	23 ± 0.02^d mm	
O=C(NN=Cc1cn(-c2ccccc2)nc1-c1ccccc1)c1cc2ccccc2oc1=O [10a]	0 mm	0 mm	0 mm	0 mm									
Cc1ccc(N=Nc2ccc3oc(=O)c(C(=O)NN=Cc4cn(-c5ccccc5)nc4-c4ccccc4)cc3c2)cc1 [10b]	28 mm	0 mm	20 mm	0 mm					0.87	28 ± 0.12^c mm	0.87		20 ± 0.13^e mm
N#C/C(=C\c1cn(-c2ccccc2)nc1-c1ccccc1)C(=O)Nc1ccc(C(=O)O)cc1 [3e]	0 mm	0 mm	0 mm	0 mm									
OC(Cn1cncn1)(Cn1cncn1)c1ccc(F)cc1F [Fluconazole, reference compound]	32 ± 0.2 mm	30.02 ± 0.05 mm	23.1 ± 0.06 mm	20.99 ± 0.05 mm									
N#C/C(=C\c1cn(-c2ccccc2)nc1-c1ccccc1)C(=O)Nc1nccs1 [3g]	18 ± 0.77 mm	0 mm	0 mm	0 mm							0.56		
O=C1OC(=O)c2c(Br)c(Br)c(Br)c(Br)c21 [compound 5, 4,5,6,7 tetrabromoisobenzofuran-1,3-dione]	0 mm	0 mm	0 mm	0 mm									
N#CCC(=O)NN=Cc1cn(-c2ccccc2)nc1-c1ccccc1 [compound 8]	0 mm	0 mm	0 mm	0 mm									
